Assay results from patent US20110319427A1 (priority 2009, published 2011).
Peptide text beside a SMILES is read from it. * marks the point of attachment. Cbz = O=C(OCc1ccccc1)*

Assays:
[1] = system: NFkappaB p50 subunit DNA binding in MDAY-D2 cells; assay: NFkappaB activity (p50 DNA-binding ELISA); format: cell-based, murine; details: 24 hours 5AHQ, with and without TNF-alpha
Experimental: NFkappaB activity was measured using the Trans-AM NFkappaB p65 transcription factor assay kit (Active Motif, Carlsbad, Calif.) according to the manufacturer's instructions. […] Nuclear extracts were prepared using the Nuclear Extract kit (Active Motif, Carlsbad, Calif.) according to the manufacturer's instructions. Binding of the NFkappaB transcription factor subunit p50 to the DNA consensus sequence (5′-[…]-3′) cross linked to 96-well plates was measured using enzyme-linked immunosorbent assay (ELISA) technology with absorbance reading according to the manufacturer's protocol.

[2] = system: OCI-AML2 or K562 human leukemia cells, MDAY-D2 murine leukemia cells in NOD-SCID mice; assay: mouse models of leukemia (xenograft), oral 5AHQ; format: in vivo
Experimental: Sublethally irradiated NOD/SCID mice were injected subcutaneously with U937 and K562 leukemia cells or intraperitoneally with MDAY-D2 leukemia cells. […] Eight (MDAY-D2) or ten (U937 and K562) days after tumor inoculation, mice were sacrificed, the subcutaneous or intraperitoneal tumor excised, and the weight of the tumors measured. The bars represent the median of the population. p values reflect the Mann-Whitney non-parametric test.
MDAY-D2 murine leukemia cells (5×10^5) were injected intraperitoneally into sublethally irradiated (3.5 Gy) NOD/SCID mice (Ontario Cancer Institute, Toronto, Canada). […] Mice were sacrificed, and the weight and volume of the intraperitoneal tumors were measured.
K562 leukemia cells (3×10^6) or U937 leukemia cells (2×10^6) were injected subcutaneously (s.c.) into the flank of sublethally irradiated NOD/SCID mice. […] Mice were then sacrificed, and the weight of the tumors was measured.
Sublethally irradiated NOD-SCID mice were injected subcutaneously with OCI-AML2 or K562 human leukemia cells or intraperitoneally with MDAY-D2 murine leukemia cells.

THP1/BTZ500 [3] = assay: cells; details: Homo sapiens, THP-1, 72 h, read-out: IC50 5AHQ
Experimental: (§5) Cell lines. Human multiple myeloma (MM) and solid tumor cell lines were grown in Iscove's Modified Dulbecco's Medium (IMDM). […] These cells were maintained in bortezomib up to at least 7 days prior to the experiment. Media were supplemented with 10% fetal calf serum (FCS), 100 ug/mL penicillin, and 100 units/mL streptomycin (all from Hyclone, Logan, Utah).
(§6) After incubation, cell viability was measured by trypan blue staining.

solid tumor cell lines = assay: cell viability MTS assay, solid tumor cell lines; format: cell-based, human; details: 72 hours, in 3/10 solid tumor cell lines
[4] = molecular target: T1, proteasome isolated from archaebacterium T. acidophilum (Thermoplasma acidophilum, UniProt P25156); assay: enzymatic activity of purified T. acidophilum proteasome (Suc-LLVY-AMC cleavage); format: biochemical
T1 construct: made in house
Excerpt: Data represent the mean±SD. A Lineweaver-Burk plot is presented as a fit to a noncompetitive model of inhibition.
(§1) Proteasome complexes were isolated from rabbit reticulocytes and T. acidophilum as described previously.

[5] = system: proteasome in protein extracts from MDAY-D2 leukemia cells; assay: proteasome activity in cell extracts (Suc-LLVY-AMC); format: biochemical, murine; details: added to extracts derived from MDAY-D2 leukemia cells
Experimental: A) Protein extracts from MDAY-D2 leukemia cells were treated with aliquots of compounds from a focused chemical library (final concentration 5 μM).

[6] = system: chymotrypsin-like activity of the proteasome in leukemia, myeloma, and solid tumor cell lines; assay: proteasome activity after treatment of intact cells (Suc-LLVY-AMC); details: intact cells treated 24 hours, then lysed
Experimental: A) Myeloma, leukemia, and solid tumor cell lines were treated with increasing concentrations of 5AHQ. Twenty hours after treatment, cells were lysed and the preferential chymotrypsin-like substrate Suc-LLVY-AMC was added. The generation of free AMC was measured over time with a fluorescent spectrophotometric plate reader as described in the Materials and Methods. Data represent the mean±SD maximal rate of proteasomal activity expressed as a percentage of buffer treated cells.
To measure the effects of 5AHQ on the enzymatic activity of the proteasome in intact cells, solid tumor, leukemia and myeloma cell lines were treated with increasing concentrations of 5AHQ. Twenty hours after treatment, cells were lysed in 50 mM HEPES pH 7.5, 150 mM NaCl and 1% Triton X-100, and 2 mM ATP. To equal protein concentrations, the proteasome fluorogenic substrate, Suc-LLVY-AMC, was added and the generation of free AMC was measured over time with a fluorescent spectrophotometric plate reader as above.
Leukemia, myeloma, and solid tumor cell lines were treated with increasing concentration of 5AHQ for 24 hours. After treatment, cells were harvested, lysed, and the chymotrypsin-like activity of the proteasome was measured by monitoring the rate of cleavage of the fluorescent substrate Suc-LLVY-AMC.

[7] = system: normal hematopoietic cells; assay: viability of normal hematopoietic cells (PBSC); format: cell-based, human
Experimental: Forty-eight hours after treatment, cell viability was measured by the MTS assay. Data represent the mean±SD percent viability compared to buffer treated cells. D) Primary acute myeloid leukemia (AML) blasts (n=4), CLL (n=5) or normal peripheral blood stem cells (PBSC) (n=3) were obtained from the peripheral blood of consenting patients with AML, CLL or donors of PBSC for allotransplantation, respectively. […] Data represent the mean±SD percentage of viable cells compared to buffer treated cells.
Primary cells. Primary human acute myeloid leukemia (AML) and chronic lymphocytic leukemia (CLL) samples were isolated from peripheral blood samples from consenting patients with AML and CLL, respectively, who had at least 80% malignant cells among the mononuclear cells in their peripheral blood. Primary normal hematopoietic cells were obtained from healthy volunteers donating peripheral blood mononuclear stem cells (PBSC) for allotransplantation. […]
Cell viability was assessed by the MTS (Promega, Madison, Wis.) and Alamar Blue Fluorescence assays (Invitrogen, Carlsbad, Calif.) according to manufacturer's instructions and as previously described [14]. Apoptosis was measured by Annexin V-FITC (Biovision Research Products, Mountain View, Calif.) staining and flow cytometry according to manufacturer's instructions and as previously described.

LD50 in mice = details: mouse, in vivo
[8] = system: T2, proteasomes isolated from rabbit reticulocytes; format: biochemical; details: Lineweaver-Burk plot analysis
T2 construct: other: Lineweaver-Burk plot analysis; other: at the Fa 10; other: at the Fa 25; other: at the Fa 50
Experimental: (§2) Data represent the mean±SD.
(§3) After incubation, cleavage of the fluorogenic substrate Z-Leu-Leu-Glu-AMC was measured as above. […] The approximate binding sites of bortezomib that is located inside the catalytic chamber are also indicated.
as §1
(§4) Data are expressed as mean values±SD. The statistical significance was computed with Student's t-test. […] Isobologram analysis was performed with CalcuSyn software (Biosoft, Ferguson, Mo., and Cambridge, UK). A combination index (CI) less than 1.0 indicated synergism.

[9] = molecular target: T3, proteasomes isolated from rabbit reticulocytes; format: biochemical; details: Lineweaver-Burk plot analysis, noncompetitive model
T3 construct: Ki
Experimental: as §2, §3, §1, §4

myeloma cell lines = assay: cell viability MTS assay, myeloma cell lines; format: cell-based, human; details: 72 hours, in 7/7 myeloma cell lines
THP1/BTZ50 [10] = assay: cells; details: Homo sapiens, THP-1, 72 h, read-out: IC50 5AHQ
Experimental: as §5, §6

THP1/BTZ100 [11] = assay: cells; details: Homo sapiens, THP-1, 72 h, read-out: IC50 5AHQ
Experimental: as §5, §6

THP1/BTZ200 [12] = assay: cells; details: Homo sapiens, THP-1, 72 h, read-out: IC50 5AHQ
Experimental: as §5, §6

[13] = system: bortezomib-resistant THP1 leukemia cells (β5 proteasome subunit mutated and over-expressed); details: 72 hours, trypan blue staining
Experimental: as §5, §6

leukemia cell lines = assay: cell viability MTS assay, leukemia cell lines; format: cell-based, human and murine; details: 72 hours, in 6/10 leukemia cell lines
[14] = molecular target: T4, α7-α7 half-proteasome of the T. acidophilum 20S proteasome (Thermoplasma acidophilum, UniProt P25156); assay: inhibitor binding to the proteasome by NMR; details: 50° C., methyl-labelled α7-α7
T4 construct: His-tag (N, cleaved yes); made in house
Excerpt: The 20S proteasome from T. acidophilum was produced as described previously with the alpha and beta subunits co-expressed from 2 different plasmids (where the beta subunit carried a C terminal His-tag). Samples of the half-proteasome comprised of pairs of alpha-rings, a7-a7, were produced by overexpression of the a subunit that carried a N-terminal cleavable His-tag that was removed during purification. Methyl labelling of proteins for NMR analysis was achieved by growing cells in D2O based minimal medium with ^2H-^12C glucose as the carbon source. One hour before induction of protein expression, alpha-ketobutyric acid (60 mg/L) and alpha-ketoisovaleric acid (100 mg/L; only one of the two isopropyl methyls was ^13CH3 labeled, the other ^12CD3) were added to introduce ^13CH3 methyl groups in Ile, Leu and Val. Proteins were purified by Ni-NTA affinity resin and size exclusion chromatography.
NMR experiments with the (a7-a7) proteasome were performed on Varian 600 MHz spectrometers at 50° C. on samples that were ˜[…], 100% D2O, 25 mM potassium phosphate pH 6.8, 50 mM NaCl, 1 mM EDTA, 0.03% NaN3 and 2 mM DTT similar to previously described. NMR data was processed and analyzed with the nmrPipe/nmrDraw software package.

[15] = system: CEM cells over-expressing the multidrug resistant pumps Pgp, BCRP, or MRP1; assay: cell death in bortezomib-resistant CEM cells; format: cell-based; details: CEM cells resistant to bortezomib by over-expression of Pgp
LP1 myeloma cell lines = assay: ubiquitinated proteins by immunoblotting; format: cell-based, human; details: 24 hours after treatment
Experimental: Whole cell lysates were prepared from myeloma cells as described previously. Briefly, cells were washed with phosphate-buffered saline (PBS, pH 7.4) and re-suspended in lysis buffer [10 mM Tris (pH 7.4), 150 mM NaCl, 0.1% Triton X-100, 0.5% sodium deoxycholate, and 5 mM EDTA] containing protease inhibitors (Complete tablets, Roche, Indianapolis, Ind.). Protein concentrations were determined by the Bradford assay. Equal amounts of protein were subjected to SDS-PAGE gels followed by transfer to nitrocellulose membranes. Membranes were probed with rabbit anti-human polyclonal anti-ubiquitin (1:1000 v/v) (Calbiochem, San Diego, Calif.), or mouse monoclonal anti-beta actin (1:10,000 v/v) (Sigma) followed by secondary horseradish peroxidase (HRP)-conjugated goat anti-mouse (1:10,000 v/v) or anti-rabbit IgG (1:5,000 v/v) (Amersham Bioscience UK, Little Chalfont, England). Detection was performed by the Enhanced Chemical Luminescence (ECL) method (Pierce, Rockford, Ill.).
Twenty four hours after treatment, the abundance of ubiquitinated proteins in the cells was measured by immunoblotting.

THP1/BTZ50 [16] = details: data from Oerlemans et al, 2008; cited from earlier work
THP1/BTZ100 [17] = details: data from Oerlemans et al, 2008; cited from earlier work
THP1/WT = details: data from Oerlemans et al, 2008; cited from earlier work
THP1/BTZ200 [18] = details: data from Oerlemans et al, 2008; cited from earlier work
THP1/BTZ500 [19] = details: data from Oerlemans et al, 2008; cited from earlier work
proteasome = details: non-competitive inhibitor binding the alpha subunits [8]; cited from earlier work

T1 sequence (P25156 whole entry): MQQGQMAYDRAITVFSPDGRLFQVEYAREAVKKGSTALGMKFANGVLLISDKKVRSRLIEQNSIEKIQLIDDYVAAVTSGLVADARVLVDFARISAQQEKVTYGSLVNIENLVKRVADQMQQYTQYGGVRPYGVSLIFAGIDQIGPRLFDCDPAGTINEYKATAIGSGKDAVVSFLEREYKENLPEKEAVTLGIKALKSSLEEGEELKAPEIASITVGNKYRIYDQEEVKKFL
T1 sequence (P28061 9-211 partner): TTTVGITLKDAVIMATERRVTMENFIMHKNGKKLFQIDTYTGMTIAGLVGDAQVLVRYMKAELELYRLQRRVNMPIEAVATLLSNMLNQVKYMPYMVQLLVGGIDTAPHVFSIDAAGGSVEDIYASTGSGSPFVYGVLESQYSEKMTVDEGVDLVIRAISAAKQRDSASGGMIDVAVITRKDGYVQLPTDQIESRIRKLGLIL
T4 sequence (P25156 whole entry): as the sequence (P25156 whole entry) above

## Nc1ccc(O)c2ncccc12 [5AHQ, 5-amino-8-hydroxyquinoline]
[1]
  NFkappaB activity: inhibited basal and TNF-alpha stimulated NFkappaB activity
[2]; 50 mg/kg/day by oral gavage, all 3 mouse models
  decrease of tumor weight and volume compared to control: at least 50%
[2]; mouse, in vivo
  weight loss or gross organ toxicity: without causing weight loss or gross organ toxicity
THP1/BTZ500 [3]
  IC50: 6.6 ± 0.9 µM
Solid tumor cell lines
  LD50: < 5 µM
[4]
  Ki: 161 ± 4 µM
[4]; Lineweaver-Burk plot
  mode of inhibition: non-competitive kinetics
[5]
  inhibition of the enzymatic activity of the proteasome: inhibited the enzymatic activity of the proteasome at low micromolar concentrations
[6]
  rate of Suc-LLVY-AMC cleavage: inhibited the rate of Suc-LLVY-AMC cleavage
[7]
  concentration up to which not cytotoxic: > 62.5 µM
LD50 in mice
  LD50: > 1000 mg/kg
[8]
  mode of inhibition: noncompetitively
[9]
  Ki: 2.1 ± 0.18 µM
Myeloma cell lines
  LD50: < 5 µM
THP1/BTZ50 [10]
  IC50: 6.6 ± 0.4 µM
THP1/BTZ100 [11]
  IC50: 6.3 ± 0.4 µM
THP1/BTZ200 [12]
  IC50: 6.4 ± 0.7 µM
[13]
  sensitivity to 5AHQ: remained essentially fully sensitive to 5AHQ
Leukemia cell lines
  LD50: < 5 µM
[14]
  NMR spectral changes on binding: clear spectral changes localized to residues Ile159, Val113, Val87, Val82, Leu112, Val89, Val134, Val24 and Leu136
[15]
  sensitivity to 5AHQ-induced cell death: remained equally sensitive to 5AHQ-induced cell death
LP1 myeloma cell lines
  amount of ubiquitinated protein: increased the amount of ubiquitinated protein

## CC(C)C[C@H](NC(=O)[C@H](Cc1ccccc1)NC(=O)c1cnccn1)B(O)O [bortezomib, [(1R)-3-Methyl-1-[[(2S)-1-oxo-3-phenyl-2-[(pyrazinylcarbonyl)amino]propyl]amino]butyl]boronic acid]
THP1/BTZ50 [16]
  RF BTZ (Resistance Factor): 45
THP1/BTZ100 [17]
  RF BTZ (Resistance Factor): 79
THP1/WT
  RF BTZ (Resistance Factor): 1
THP1/BTZ200 [18]
  RF BTZ (Resistance Factor): 129
THP1/BTZ500 [19]
  RF BTZ (Resistance Factor): 237

## CCN(CC)CCCC(C)Nc1ccnc2cc(Cl)ccc12 (centres unmarked) [chloroquine]
proteasome
  proteasome inhibition relative to 5AHQ: much weaker proteasome inhibitor than 5AHQ

## CC(C)C[C@@H](C=O)NC(=O)[C@H](CC(C)C)NC(=O)[C@H](CC(C)C)NC(=O)OCc1ccccc1 [MG132, reference compound] (Cbz-Leu-Leu-Leu-aldehyde)
[8]
  mode of inhibition: competitively
